In patent US8202856B2 (Merck Serono SA, priority 2007, dated 2012):

Assays:
S1P3 receptor = S1P3 receptor (Homo sapiens, UniProt Q99500); experiment: 35S-GTPγS binding, membranes from CHO cells expressing S1P3; assay type: biochemical; conditions: CHO cell membranes expressing S1P3
Description: Receptor binding assay: Membranes were prepared from CHO cells expressing S1P1 or S1P3 for use in ligand and 35S-GTPTS binding studies. Cells were suspended in 50 mM TRIS, pH 7.4, 2 mM EDTA, 250 mM Sucrose (buffer A) and 1× Complete protease inhibitor cocktail (Roche), and disrupted at 4° C. by nitrogen decompression using a cell disruption bomb (Parr Instrument). Following centrifugation at 1000 RPM for 10 min at 4° C., the supernatant was suspended in buffer A and centrifuged again at 19000 RPM for 60 min at 4° C. The pellet was then suspended in 10 mM HEPES, pH 7.4, 1 mM EDTA, 250 mM Sucrose (Buffer B), and 1× Complete EDTA-free protease inhibitor cocktail and homogenized using a potter. Membranes were flash frozen in liquid nitrogen and stored at −80° C. [33P]sphingosine 1-phosphate (3000 Ci/mmol; American Radiolabeled Chemicals, Inc.) was added to test compounds in DMSO. Membranes and WGA SPA beads (GE Healthcare) were added to give a final volume of 100 μl in 96-well plates with assay concentrations of […] [33P]sphingosine 1-phosphate (respectively for S1P1 or S1P3), 50 mM HEPES, pH 7.5, 5 mM MgCl2, 100 mM NaCl, 0.4% fatty acid-free BSA, 1-5 μg/well of proteins and 100 μg/well of WGA SPA beads. Binding was performed for 60 min at room temperature on a shaker and bound radioactivity was measured on a PerkinElmer 1450 MicroBeta counter. Specific binding was calculated by subtracting remaining radioactivity in the presence of 1000-fold excess of unlabeled S1P. Binding data were analyzed using the GraphPad Prism program.
Measurements of ^35S-GTPγS Binding: Membranes (1 to 10 μg protein) prepared as described above, were incubated in 96-well Scintiplates (PerkinElmer) with test compounds diluted in DMSO, in 180 μl of 20 mM HEPES, pH 7.4, 10 mM MgCl2, 2 μg/well Saponin, 0.2% fatty acid free BSA (Assay buffer), 140 mM NaCl and 1.7 μM GDP. The assay was initiated with the addition of 20 μl of 1.5 nM [35S]-GTPγS (1100 Ci/mmol; GE Healthcare) in assay buffer. After 60 min incubation at 30° C. on a shaker, plates were centrifuged for 10 min at 2000 RPM. Supernatant was discarded and membrane bound radioactivity was measured on a PerkinElmer 1450 MicroBeta counter. Triplicate samples were averaged and expressed as response relative to S1P activation in absence of compound (n=2).

S1P1 receptor = S1P1 receptor (Homo sapiens, UniProt P21453); experiment: 35S-GTPγS binding, membranes from CHO cells expressing S1P1; assay type: biochemical; conditions: CHO cell membranes expressing S1P1
In short: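 Membranes (1–10 μg) from CHO cells expressing the receptor were incubated with compound in 20 mM HEPES pH 7.4, 10 mM MgCl2, 140 mM NaCl, 1.7 μM GDP, saponin and 0.2% BSA. [35S]GTPγS (added at 1.5 nM) was then bound for 60 min at 30 °C. Membrane-bound radioactivity, averaged over triplicates, is expressed relative to S1P activation (n=2).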

Sequence of S1P3 receptor (Q99500 whole entry): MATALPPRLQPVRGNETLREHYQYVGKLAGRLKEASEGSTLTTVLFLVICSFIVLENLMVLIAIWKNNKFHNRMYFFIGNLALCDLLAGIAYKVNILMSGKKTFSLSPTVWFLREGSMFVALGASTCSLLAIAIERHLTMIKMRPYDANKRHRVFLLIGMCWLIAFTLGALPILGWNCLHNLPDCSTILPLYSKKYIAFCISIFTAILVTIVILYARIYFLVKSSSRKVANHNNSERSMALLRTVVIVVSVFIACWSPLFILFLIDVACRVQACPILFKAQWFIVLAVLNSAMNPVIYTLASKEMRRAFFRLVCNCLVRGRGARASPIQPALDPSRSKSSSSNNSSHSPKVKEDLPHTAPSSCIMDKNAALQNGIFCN
Sequence of S1P1 receptor (P21453 whole entry): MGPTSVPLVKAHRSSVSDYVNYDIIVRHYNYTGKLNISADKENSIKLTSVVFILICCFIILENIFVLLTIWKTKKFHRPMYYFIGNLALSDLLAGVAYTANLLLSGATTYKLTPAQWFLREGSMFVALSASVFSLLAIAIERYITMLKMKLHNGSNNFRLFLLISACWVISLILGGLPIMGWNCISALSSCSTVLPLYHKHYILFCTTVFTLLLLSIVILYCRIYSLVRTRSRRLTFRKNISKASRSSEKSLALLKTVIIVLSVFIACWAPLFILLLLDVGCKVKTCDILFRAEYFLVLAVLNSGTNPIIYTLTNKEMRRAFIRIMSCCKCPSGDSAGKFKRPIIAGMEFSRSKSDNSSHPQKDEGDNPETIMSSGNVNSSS

Compound	EC50 (S1P3 receptor)	EC50 (S1P1 receptor)
COCc1c(-c2nc(-c3ccccc3F)no2)nnn1-c1ccccc1F	> 30 µM	0.211 µM
CCc1c(-c2nc(-c3ccccc3)no2)nnn1-c1ccccc1F [Example 5, 5-[5-Ethyl-1-(2-fluorophenyl)-1H-1,2,3-triazole-4-yl]-3-phenyl-1,2,4-oxadiazole]	> 30 µM	0.862 µM
CCc1c(-c2nc(-c3ccccc3F)no2)nnn1-c1ccccc1F [Example 6, 5-[5-Ethyl-1-(2-fluorophenyl)-1H-1,2,3-triazole-4-yl]-3-(2-fluorophenyl)-1,2,4-oxadiazole]	> 30 µM	0.561 µM
CCc1c(-c2nc(-c3cc(F)ccc3F)no2)nnn1-c1ccccc1F [Example 7, 3-(2,5-Difluorophenyl)-5-[5-ethyl-1-(2-fluorophenyl)-1H-1,2,3-triazole-4-yl]-1,2,4-oxadiazole]	> 30 µM	–
COCc1c(-c2nc(-c3ccc(F)cc3F)no2)nnn1-c1ccccc1F [Example 8, 3-(2,4-Difluorophenyl)-5-[1-(2-fluorophenyl)-5-(methoxymethyl)-1H-1,2,3-triazole-4-yl]-1,2,4-oxadiazole]	> 10 µM	0.744 µM
COCc1c(-c2nc(-c3cc(F)ccc3F)no2)nnn1-c1ccccc1F [Example 10, 3-(2,5-Difluorophenyl)-5-[1-(2-fluorophenyl)-5-(methoxymethyl)-1H-1,2,3-triazole-4-yl]-1,2,4-oxadiazole]	> 30 µM	0.045 µM
Fc1ccc(-c2noc(-c3nnn(-c4ccccc4F)c3-c3ccccc3)n2)c(F)c1 [Example 11, 3-(2,4-Difluorophenyl)-5-[1-(2-fluorophenyl)-5-phenyl-1H-1,2,3-triazole-4-yl]-1,2,4-oxadiazole]	> 30 µM	0.053 µM
Fc1ccc(F)c(-c2noc(-c3nnn(-c4ccccc4F)c3-c3ccccc3)n2)c1 [Example 12, 3-(2,5-Difluorophenyl)-5-[1-(2-fluorophenyl)-5-phenyl-1H-1,2,3-triazole-4-yl]-1,2,4-oxadiazole]	14 µM	0.007 µM
Fc1ccccc1-c1noc(-c2nnn(-c3ccccc3F)c2-c2ccccc2)n1 [Example 13, 3-(2-Fluorophenyl)-5-[1-(2-fluorophenyl)-5-phenyl-1H-1,2,3-triazole-4-yl]-1,2,4-oxadiazole]	0.486 µM	0.029 µM
Fc1ccccc1-n1nnc(-c2nc(-c3ccccc3)no2)c1-c1ccccc1 [Example 14, 5-[1-(2-Fluorophenyl)-5-phenyl-1H-1,2,3-triazole-4-yl]-3-phenyl-1,2,4-oxadiazole]	0.399 µM	0.038 µM
COCc1c(-c2nc(-c3ccccc3)no2)nnn1-c1ccccc1F [Example 15, 5-[1-(2-Fluorophenyl)-5-(methoxymethyl)-1H-1,2,3-triazole-4-yl]-3-phenyl-1,2,4-oxadiazole]	> 30 µM	0.391 µM
CCCCc1c(-c2nc(-c3ccccc3F)no2)nnn1-c1ccccc1F [Example 16, 5-5-[5-Butyl-1-(2-fluorophenyl)-1H-1,2,3-triazole-4-yl]-3-(2-fluorophenyl)-1,2,4-oxadiazole]	7.36 µM	0.158 µM
CCCCc1c(-c2nc(-c3ccccc3)no2)nnn1-c1ccccc1F [Example 17, 5-[5-Butyl-1-(2-fluorophenyl)-1H-1,2,3-triazole-4-yl]-3-phenyl-1,2,4-oxadiazole]	4.9 µM	0.144 µM
Oc1ccc(-c2noc(-c3nnn(-c4ccccc4F)c3-c3ccccc3)n2)c(F)c1 [Example 18, 3-Fluoro-4-{5-[1-(2-fluorophenyl)-5-phenyl-1H-1,2,3-triazole-4-yl]-1,2,4-oxadiazole-3-yl}phenol]	0.221 µM	0.022 µM
COC(=O)c1cccc(-c2noc(-c3nnn(-c4ccccc4F)c3-c3ccccc3)n2)c1 [Example 20, Methyl 3-{5-[1-(2-fluorophenyl)-5-phenyl-1H-1,2,3-triazole-4-yl]-1,2,4-oxadiazole-3-yl}benzoate]	8.55 µM	0.084 µM
Fc1ccccc1-n1nnc(-c2nc(-c3cccc(C(F)(F)F)c3)no2)c1-c1ccccc1 [Example 21, 5-[1-(2-Fluorophenyl)-5-phenyl-1H-1,2,3-triazole-4-yl]-3-[3-(trifluoromethyl)phenyl]-1,2,4-oxadiazole]	> 30 µM	0.041 µM
COc1ccccc1-c1noc(-c2nnn(-c3ccccc3F)c2-c2ccccc2)n1 [Example 22, 5-[1-(2-Fluorophenyl)-5-phenyl-1H-1,2,3-triazole-4-yl]-3-(2-methoxyphenyl)-1,2,4-oxadiazole]	6.86 µM	0.14 µM
Fc1ccccc1-c1noc(-c2nnn(-c3ccccc3F)c2-c2cccnc2)n1 [Example 25, 3-{1-(2-Fluorophenyl)-4-[3-(2-fluorophenyl)-1,2,4-oxadiazole-5-yl]-1H-1,2,3-triazole-5-yl}pyridine]	> 20 µM	0.272 µM
Fc1ccc(F)c(-c2noc(-c3nnn(-c4ccccc4F)c3-c3cccnc3)n2)c1 [Example 26, 3-[4-[3-(2,5-Difluorophenyl)-1,2,4-oxadiazole-5-yl]-1-(2-fluorophenyl)-1H-1,2,3-triazole-5-yl]pyridine]	> 20 µM	0.095 µM
Fc1ccccc1-c1noc(-c2nnn(-c3ccccc3F)c2-c2ccccn2)n1 [Example 27, 2-{1-(2-Fluorophenyl)-4-[3-(2-fluorophenyl)-1,2,4-oxadiazole-5-yl]-1H-1,2,3-triazole-5-yl}pyridine]	2.89 µM	0.188 µM
Fc1ccc(F)c(-c2noc(-c3nnn(-c4ccccc4F)c3-c3ccccn3)n2)c1 [Example 28, 2-[4-[3-(2,5-Difluorophenyl)-1,2,4-oxadiazole-5-yl]-1-(2-fluorophenyl)-1H-1,2,3-triazole-5-yl]pyridine]	7.25 µM	0.044 µM
Fc1ccc(F)c(-c2noc(-c3nnn(-c4ccccc4F)c3-c3ccncc3)n2)c1 [Example 31, 4-[4-[3-(2,5-Difluorophenyl)-1,2,4-oxadiazole-5-yl]-1-(2-fluorophenyl)-1H-1,2,3-triazole-5-yl]pyridine]	1.78 µM	0.007 µM
Fc1ccccc1-c1noc(-c2nnn(-c3ccccc3F)c2-c2ccncc2)n1 [Example 32, 4-{1-(2-Fluorophenyl)-4-[3-(2-fluorophenyl)-1,2,4-oxadiazole-5-yl]-1H-1,2,3-triazole-5-yl}pyridine]	1.2 µM	0.02 µM
O=C(O)c1ccc(-c2noc(-c3nnn(-c4ccccc4F)c3-c3ccccc3)n2)c(F)c1 [Example 33, 3-Fluoro-4-{5-[1-(2-fluorophenyl)-5-phenyl-1H-1,2,3-triazole-4-yl]-1,2,4-oxadiazole-3-yl}benzoic acid]	> 20 µM	0.501 µM
Cc1c(-c2nc(-c3ccccc3)no2)nnn1-c1ccccc1F [Example 34, 5-[1-(2-fluorophenyl)-5-methyl-1H-1,2,3-triazol-4-yl]-3-phenyl-1,2,4-oxadiazole]	> 30 µM	1.1 µM
Fc1ccc(F)c(-c2noc(-c3nnn(-c4ccccc4F)c3CN3CCOCC3)n2)c1 [Example 39, 4-{[4-[3-(2,5-difluorophenyl)-1,2,4-oxadiazol-5-yl]-1-(2-fluorophenyl)-1H-1,2,3-triazol-5-yl]methyl}morpholine]	0.741 µM	0.092 µM
COc1ccccc1-c1noc(-c2nnn(-c3ccccc3F)c2-c2ccncc2)n1 [Example 40, 4-{1-(2-fluorophenyl)-4-[3-(2-methoxyphenyl)-1,2,4-oxadiazol-5-yl]-1H-1,2,3-triazol-5-yl}pyridine]	> 20 µM	0.12 µM
Fc1ccccc1-n1nnc(-c2nc(-c3ccncc3)no2)c1-c1ccncc1 [Example 41, 4-[1-(2-fluorophenyl)-4-(3-pyridin-4-yl-1,2,4-oxadiazol-5-yl)-1H-1,2,3-triazol-5-yl]pyridine]	> 20 µM	0.16 µM
COCCc1c(-c2nc(-c3cccnc3)no2)nnn1-c1ccccc1F [Example 46, 3-{5-[1-(2-fluorophenyl)-5-(2-methoxyethyl)-1H-1,2,3-triazol-4-yl]-1,2,4-oxadiazol-3-yl}pyridine]	> 20 µM	0.516 µM
